Data taken from US20160193250A1, “CHORION-DERIVED MSCS CELLS AND CONDITIONED MEDIA AS INDUCER FOR ANGIOGENESIS APPLICATION FOR THE TREATMENT OF CARDIAC DEGENERATION” (CELLS FOR CELLS, priority 2013, published 2016).

What was measured:
[1] = system: genes involved in cardio-myogenesis (NKX2-5, GATA-4, MEF2C, MYH7B, GJA1, TNNT2); assay: Cardio-myogenic induction with 5-azacytidine, relative gene expression by RT-qPCR; assay type: cell-based, human; details: all MSC sources treated with 5-aza, 30 days of culture after induction
Text: In order to assess chorion, decidua, gelatin of Wharton, and bone marrow MSCs cardio-myogenic potential, 3000 cells per cm^2 of each one of the MSCs were planted in biologic triplicate (3 different donors) in a plate of 6, leaving 3 bowls for induced condition and other 3 for control condition. This method was developed to obtain cells for assessment through RT-qPCR. However, in order to assess protein expression through indirect immunofluorescence (IFI), cells were planted on a […] circular glass cover placed on a 24-bowl plate, leaving 12 bowls for induced condition and 12 bowls for control condition. […]
The polymerase chain reaction in real time, preceded by reverse transcription (RT-qPCR), was based on quantification kinetics that allowed calculating the messenger RNA through the recording of PCR product forming in real time. This was the quantification, during the reaction exponential stage, of amplified PCR products and labeled with fluorochrome. In this work, a relative quantification of genes of interest was carried out, i.e. a gene of interest expression level is obtained compared to another one that keeps its expression constant and is called standardizing gene; therefore, in this thesis human gene B2M was selected as standardizing. […]

MSCs = assay: MSC morphology during cardiac induction with 5-aza; assay type: cell-based, human; details: MSCs treated with 5-aza
Text: In order to establish morphology changes occurred in MSCs treated with 5-aza, photographs were taken daily for later analysis. […] After 20 days, confluence in both conditions was quite similar and reached 100%. In some dishes, it was common to find a reduced percentage (10%) of cells with vacuoles inside them. On the other hand, it was also noted that a large percentage (approximately 70%) of cells adopted a rounded and flat morphology, while other presented a longish tubular morphology which, in some cases, were multi-core.
For induction, MSCs we incubated with DMEM, 2% FBS, 1% Pen/Strep, 1% L-glutamine, supplemented with 10 μM 5-zacitidine (Sigma, USA) during 24 hours, and kept in a humidified and thermo-regulated incubator at 37° C. and 5% CO2. Later, they were removed from the induction medium, cells were washed three times with PBS 1× adjusted to ph 7.4 (Life Technologies, USA), and cultured in a maintenance medium during 30 days, being renewed every three days. The control condition corresponded to cells submitted to DMEM 2% FBS with no 5-aza during 24 hours, and then cultured in maintenance medium during 30 days.

`Nc1ncn([C@@H]2O[C@H](CO)[C@@H](O)[C@H]2O)c(=O)n1` [5-aza, 5-azacytidine] was tested, and the “relative expression of all genes associated to cardio-myogenesis compared to control” value [1] was “significant increase”, the “percentage of cells with rounded and flat morphology” value (MSCs) was “approximately 70%” and the “percentage of cells with vacuoles inside them” value (MSCs; in some dishes) was 10%.
